The text below walks through data of US10399932B2, “Inhibitors of indoleamine-2,3-dioxygenase for the treatment of cancer” (BRISTOL-MYERS SQUIBB COMPANY, priority 2015, dated 2019).

The assay has as its target human IDO1 (Homo sapiens, UniProt P14902). Put plainly: Assessment of human IDO-1 inhibitory activity in Hela cells (Interferon-gamma activated, Ehrlich reagent, absorbance at 490 nm). In kind it is cell-based. Set-up: endogenous in cells; host or cells: HeLa cells stimulated with interferon-gamma. The settings on record: 18 hours. The procedure:
Exemplary compounds were tested for inhibition of IDO activity.
HeLa cells were seeded at 20,000 cells per 30 µL per well with RPMI/phenol red free media containing 10% FBS in a 384-well tissue culture plate (black with clear bottoms). 50 nL of compound was added to cells and incubated at 37° C. for one hour. 20 μL of the recombinant human Interferon-gamma (R&D System, Cat. #285-IF, at final concentration of 10 ng/ml) or recombinant murine Interferon-gamma (PEPROTECH® Inc., Cat. #315-05, final concentration of 5 ng/ml) was added to activate IDO signaling. The cells were incubated for 18 hours in 37° C. incubator with 5% CO2.
Compound treatment was stopped by adding 5 μl trichloroacetic acid to a final concentration of 3%. Subsequently, the cell plate was further incubated at 50° C. for 30 minute. An equal volume supernatant (20 μL) and 2% (w/v) Ehrlich reagent (4-dimethylaminobenzaldehyde) in glacial acetic acid were mixed in a new clear bottom 384-well plate. This plate was incubated at room temperature for 30 minutes. Absorbance at 490 nm was measured on Envision plate reader.
Compound IC50 values were calculated using counts from unstimulated (no INF-gamma treatment) wells as 100% inhibition. INF-gamma treatment without compound treatment as 0% inhibition.

human IDO1, sequence (P14902 whole entry): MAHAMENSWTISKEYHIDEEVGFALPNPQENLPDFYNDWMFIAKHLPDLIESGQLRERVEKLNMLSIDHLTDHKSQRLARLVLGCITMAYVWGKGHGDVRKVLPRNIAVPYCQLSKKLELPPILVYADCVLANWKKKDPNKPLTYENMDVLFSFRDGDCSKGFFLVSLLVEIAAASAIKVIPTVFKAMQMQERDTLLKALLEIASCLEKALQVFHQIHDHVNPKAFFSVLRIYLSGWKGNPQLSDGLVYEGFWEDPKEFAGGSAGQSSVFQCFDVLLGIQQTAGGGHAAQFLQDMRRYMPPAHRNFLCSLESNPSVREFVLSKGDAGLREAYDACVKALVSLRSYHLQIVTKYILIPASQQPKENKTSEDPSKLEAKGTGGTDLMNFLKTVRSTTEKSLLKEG

In general, IC50 refers to the concentration needed to halve the response being measured. Regarding “3-(3-((4-cyanophenyl)amino)-4-(ethyl (tetrahydro-2H-pyran-4-yl)amino) phenyl)-3-methylpentanoic acid [Example 27]”, the IC50 is below 5 nM.
The value for “3-(4-((1,1-dioxidotetrahydro-2H-thiopyran-4-yl)(ethyl)amino)-3-((4-fluorophenyl)amino)phenyl)-4-isopropoxybutanoic acid [Example 340]” was below 50 nM; that for “3-(5-((4-chlorophenyl) amino)-4-(ethyl(tetrahydro- 2H-pyran-4-yl)amino)-2- fluorophenyl)-4- methoxybutanoic acid [Example 852]” was below 50 nM; that for `COCC(CC(=O)O)c1ccc(N2C[C@@H](C)O[C@@H](C)C2)c(Nc2ccc(C#N)cc2)c1` (single isomer, unassigned) [602 E2] was above 50 nM.
Regarding `CCOc1ncc(Nc2cc(C(CC)CC(=O)O)ccc2N(CC)C2CCOC2)cn1` (single isomer, unassigned) [947 D1], the IC50 is below 50 nM.
The value for `CCOc1ncc(Nc2cc(C(CC)CC(=O)O)ccc2N(CC)C2CCOC2)cn1` (single isomer, unassigned) [947 D2] was below 50 nM.
With `CCC(CC(=O)O)c1ccc(N(CC)C2CCOC2)c(NC(=O)Nc2ccc(Cl)cc2F)c1` (single isomer, unassigned) [948 D1] the figure was below 50 nM.
In the case of `CCC(CC(=O)O)c1ccc(N(CC)C2CCOC2)c(NC(=O)Nc2ccc(Cl)cc2F)c1` (single isomer, unassigned) [948 D2], the IC50 is below 50 nM.
With `CCOc1ncc(Nc2cc(C(CC)CC(=O)O)ccc2N2CCOCC2)cn1` (single isomer, unassigned) [Example 7 Enantiomer 1, 3-(3-((2-Ethoxypyrimidin-5-yl)amino)-4-morpholinophenyl)pentanoic acid] the figure was above 50 nM.
With `CCCN(c1ccc(C(CC)CC(=O)O)cc1Nc1ccc(C#N)cc1)C1CCS(=O)(=O)CC1` (single isomer, unassigned) [Example 12 Enantiomer 2, 3-(3-((4-Cyanophenyl)amino)-4-((1,1-dioxidotetrahydro-2H-thiopyran-4-yl)(propyl)amino)phenyl)pentanoic acid] the figure was below 5 nM; with `CCCN(c1ccc(C(CC)CC(=O)O)cc1Nc1cnc(OCC)nc1)C1CCS(=O)(=O)CC1` (single isomer, unassigned) [Example 13 Enantiomer 2, 3-(4-((1,1-Dioxidotetrahydro-2h-thiopyran-4-yl)(propyl)amino)-3-((2-ethoxypyrimidin-5-yl)amino)phenyl)pentanoic acid], below 50 nM.
On to `CCCN(c1ccc(C(CC)CC(=O)O)cc1NC(=O)Nc1ccc(C)cc1)C1CCS(=O)(=O)CC1` (single isomer, unassigned) [Example 14 Enantiomer 2, 3-(4-((1,1-Dioxidotetrahydro-2h-thiopyran-4-yl)(propyl)amino)-3-(3-(p-tolyl)ureido)phenyl)pentanoic acid], for which the IC50 was above 50 nM.
With `CCN(c1ccc(C(CC(=O)O)C2CC2)cc1Nc1ccc(Cl)cc1)C1CCOCC1` (single isomer, unassigned) [Example 33 Enantiomer 2, 3-(3-((4-Chlorophenyl)amino)-4-(ethyl(tetrahydro-2H-pyran-4-yl)amino)phenyl)-3-cyclopropylpropanoic acid] the figure was below 5 nM.
The value for `CCN(c1ccc(C(CC(=O)O)C2CC2)cc1Nc1cnc(OC)nc1)C1CCOCC1` (single isomer, unassigned) [Example 38, 3-cyclopropyl-3-(4-(ethyl(tetrahydro-2H-pyran-4-yl)amino)-3-((2-methoxypyrimidin-5-yl)amino)phenyl) propanoic acid] was below 50 nM; that for `CCOc1ncc(Nc2cc(C(CC(=O)O)C3CC3)ccc2N(CC)C2CCOCC2)cn1` (single isomer, unassigned) [Example 39, 3-cyclopropyl-3-(3-((2-ethoxypyrimidin-5-yl)amino)-4-(ethyl(tetrahydro-2H-pyran-4-yl)amino)phenyl)propanoic acid] was below 50 nM; that for `CCC(CC(=O)O)c1ccc(N2CCC(C)CC2)c(Nc2ccc(C#N)cc2)c1` (single isomer, unassigned) [Example 41 Enantiomer 2, 3-(3-((4-Cyanophenyl)amino)-4-(4-methylpiperidin-1-yl)phenyl)pentanoic acid] was below 50 nM.
With `CCC(CC(=O)O)c1ccc(N2CCC(C)CC2)c(Nc2cnc(OC)nc2)c1` (single isomer, unassigned) [Example 44, 3-(3-((2-methoxypyrimidin-5-yl)amino)-4-(4-methylpiperidin-1-yl)phenyl) pentanoic acid] the figure was above 50 nM.
With `CCOc1ncc(Nc2cc(C(CC)CC(=O)O)ccc2N2CCC(C)CC2)cn1` (single isomer, unassigned) [Example 45, 3-(3-((2-ethoxypyrimidin-5-yl)amino)-4-(4-methylpiperidin-1-yl)phenyl)pentanoic acid], the IC50 is above 50 nM.
With `CCC(CC(=O)O)c1ccc(N2CCC(C)CC2)c(NC(=O)Nc2ccc(C)cc2)c1` (single isomer, unassigned) [Example 46 Enantiomer 2, 3-(4-(4-Methylpiperidin-1-yl)-3-(3-(p-tolyl)ureido)phenyl) pentanoic acid] the figure was above 50 nM; with `CC(CC(=O)O)c1ccc(N(CC(C)(C)O)C2CCCCC2)c(Nc2ccc(Cl)cc2)c1` (single isomer, unassigned) [Example 48 Enantiomer 2, 3-(3-((4-Chlorophenyl)amino)-4-(cyclohexyl(2-hydroxy-2-methylpropyl)amino)phenyl)butanoic acid], below 5 nM.
`CCC(CC(=O)O)c1ccc(N(CC)C2CCCOC2)c(Nc2ccc(C#N)cc2)c1` (single isomer, unassigned) [Example 64, 3-(3-((4-cyanophenyl)amino)-4-(ethyl (tetrahydro-2H-pyran-3-yl)amino)phenyl)pentanoic acid] had an IC50 below 5 nM.
The value for `CCOc1ncc(Nc2cc(C(CC)CC(=O)O)ccc2N(CC)C2CCCOC2)cn1` (single isomer, unassigned) [Example 66, 3-(3-((2-ethoxypyrimidin-5-yl)amino)-4-(ethyl(tetrahydro-2H-pyran-3-yl)amino)phenyl)pentanoic acid] was below 5 nM; that for `CCC(CC(=O)O)c1ccc(N(CC)C2CCCOC2)c(Nc2ccc(C#N)cc2)c1` (single isomer, unassigned) [Example 67, 3-(3-((4-cyanophenyl)amino)-4-(ethyl (tetrahydro-2H-pyran-3-yl)amino)phenyl)pentanoic acid] was below 5 nM; that for `CCOc1ncc(Nc2cc(C(CC)CC(=O)O)cc(F)c2N(CC)C2CCOCC2)cn1` (single isomer, unassigned) [Example 139, 3-(3-((2-ethoxypyrimidin-5-yl)amino)-4-(ethyl (tetrahydro-2H-pyran-4-yl)amino)-5-fluorophenyl)pentanoic acid] was below 5 nM.
The compound `CCC(CC(=O)O)c1cc(F)c(N(CC)C2CCOCC2)c(Nc2ccc(C#N)cn2)c1` (single isomer, unassigned) [Example 143, 3-(3-((5-cyanopyridin-2-yl)amino)-4-(ethyl (tetrahydro-2H-pyran-4-yl)amino)-5-fluorophenyl)pentanoic acid] came in with a 50% inhibitory concentration (IC50) below 5 nM.
`CCC(CC(=O)O)c1cc(F)c(N(CC)C2CCOCC2)c(Nc2ccc(Cl)cc2)c1` (single isomer, unassigned) [Example 144, 3-(3-((4-chlorophenyl)amino)-4-(ethyl (tetrahydro-2H-pyran-4-yl)amino)-5-fluorophenyl)pentanoic acid] returned an IC50 below 5 nM.
With `CCN(c1ccc(C(COC)CC(=O)O)cc1Nc1ccc(C#N)cc1)C1CCS(=O)(=O)CC1` (single isomer, unassigned) [Example 169, 3-(3-((4-cyanophenyl)amino)-4-((1,1-dioxidotetrahydro-2H-thiopyran-4-yl)(ethyl)amino)phenyl)-4-methoxybutanoic acid] the figure was above 50 nM.
Turning to `CCCN(c1ccc(C(COC)CC(=O)O)cc1Nc1ccc(F)cc1)C1CCS(=O)(=O)CC1` (single isomer, unassigned) [Example 186, 3-(4-((1,1-dioxidotetrahydro-2H-thiopyran-4-yl)(propyl)amino)-3-((4-fluorophenyl)amino)phenyl)-4-methoxybutanoic acid], the IC50 was below 5 nM.
With `C[C@@H]1CN(c2ccc(C(CC(=O)O)C3CC3)cc2Nc2ccc(Cl)cc2)C[C@H](C)O1` (single isomer, unassigned) [Example 248] the figure was below 50 nM; with `CCOc1ncc(Nc2cc(C(CC(=O)O)C3CC3)ccc2N2C[C@@H](C)O[C@@H](C)C2)cn1` (single isomer, unassigned) [Example 249], above 50 nM.
The value for `Cc1ccc(NC(=O)Nc2cc(C(CC(=O)O)C3CC3)ccc2N2C[C@@H](C)O[C@@H](C)C2)cc1` (single isomer, unassigned) [Example 251 Enantiomer 2] was above 50 nM.
With `C[C@@H]1CN(c2ccc(C(CC(=O)O)C3CC3)cc2NC(=O)Nc2ccc(Cl)cc2F)C[C@H](C)O1` (single isomer, unassigned) [Example 253] the figure was above 50 nM.
